Measured values published in patent US8063048B2, “Acetylenyl-pyrazolo-pyrimidine derivatives” (Hoffmann-La Roche Inc., priority 2005, dated 2011).

| Compound | melting point [°C] |
| --- | --- |
| CC(C)(CO)NS(=O)(=O)c1cnc(C#Cc2cnn3c(C(F)(F)F)cc(-c4ccc(C(F)(F)F)cc4)nc23)s1 [Example 23, 2-[7-Trifluoromethyl-5-(4-trifluoromethyl-phenyl)-pyrazolo[1,5-a]pyrimidin-3-ylethynyl]-thiazole-5-sulfonic acid (2-hydroxy-1,1-dimethyl-ethyl)-amide] | 252 to 253 |
| NC(=O)c1cncc(C#Cc2cnn3c(C(F)(F)F)cc(-c4ccc(C(F)(F)F)cc4)nc23)c1 [Example 15, 5-[7-Trifluoromethyl-5-(4-trifluoromethyl-phenyl)-pyrazolo[1,5-a]pyrimidin-3-ylethynyl]-nicotinamide] | 285 to 287 |
| CC(C)(CO)NS(=O)(=O)c1cncc(C#Cc2cnn3c(C(F)F)cc(-c4ccc(C(F)(F)F)cc4)nc23)c1 [Example 27, 5-[7-Difluoromethyl-5-(4-trifluoromethyl-phenyl)-pyrazolo[1,5-a]pyrimidin-3-ylethynyl]-pyridine-3-sulfonic acid (2-hydroxy-1,1-dimethyl-ethyl)-amide] | 200 to 201 |
| FC(F)(F)c1ccc(-c2cc(C(F)(F)F)n3ncc(C#Cc4cccnc4C4CC4)c3n2)cc1 [Example 8, 3-(2-Cyclopropyl-pyridin-3-ylethynyl)-7-trifluoromethyl-5-(4-trifluoromethyl-phenyl)-pyrazolo[1,5-a]pyrimidine] | 202 |
| COc1ccc(C#Cc2cnn3c(C4CC4)cc(-c4ccc(C(F)(F)F)cc4)nc23)cc1S(=O)(=O)NC(C)(C)CO [Example 81, 5-[7-Cyclopropyl-5-(4-trifluoromethyl-phenyl)-pyrazolo[1,5-a]pyrimidin-3-ylethynyl]-N-(2-hydroxy-1,1-dimethyl-ethyl)-2-methoxy-benzenesulfonamide] | 192 to 195 |
| CC(C)(CO)NS(=O)(=O)c1cnc(C#Cc2cnn3c(C4CC4)cc(-c4ccc(C(F)(F)F)cc4)nc23)s1 [Example 82, 2-[7-Cyclopropyl-5-(4-trifluoromethyl-phenyl)-pyrazolo[1,5-a]pyrimidin-3-ylethynyl]-thiazole-5-sulfonic acid (2-hydroxy-1,1-dimethyl-ethyl)-amide] | 243 to 245 |
| CC(C)(C)NS(=O)(=O)c1ccc(C#Cc2cnn3c(C(F)(F)F)cc(-c4ccc(C(F)(F)F)cc4)nc23)s1 [Example 109, 5-[7-Trifluoromethyl-5-(4-trifluoromethyl-phenyl)-pyrazolo[1,5-a]pyrimidin-3-ylethynyl]-thiophene-2-sulfonic acid tert-butylamide] | 226 |
| Cc1cc(-c2cc(C(F)(F)F)n3ncc(C#Cc4ccc(S(N)(=O)=O)cc4)c3n2)ccc1Cl [Example 110, 4-[5-(4-Chloro-3-methyl-phenyl)-7-trifluoromethyl-pyrazolo[1,5-a]pyrimidin-3-ylethynyl]-benzenesulfonamide] | 275 |
| CC(C)(CO)NS(=O)(=O)c1cccc(C#Cc2cnn3c(C(F)(F)F)cc(-c4ccc(Cl)cc4)nc23)c1 [Example 95, 3-[5-(4-Chloro-phenyl)-7-trifluoromethyl-pyrazolo[1,5-a]pyrimidin-3-ylethynyl]-N-(2-hydroxy-1,1-dimethyl-ethyl)-benzenesulfonamide] | 226 to 229 |
| COCCNS(=O)(=O)c1ccc(C#Cc2cnn3c(C(F)(F)F)cc(-c4ccc(C(F)(F)F)cc4)nc23)cc1 [Example 124, N-(2-Methoxy-ethyl)-4-[7-trifluoromethyl-5-(4-trifluoromethyl-phenyl)-pyrazolo[1,5-a]pyrimidin-3-ylethynyl]-benzenesulfonamide] | 185 to 187 |
| COc1cncc(C#Cc2cnn3c(C(F)(F)F)cc(-c4ccc(C(F)(F)F)cc4)nc23)c1 [Example 57, 3-(5-Methoxy-pyridin-3-ylethynyl)-7-trifluoromethyl-5-(4-trifluoromethyl-phenyl)-pyrazolo[1,5-a]pyrimidine] | 232 to 234 |
| CC(C)(CO)NS(=O)(=O)c1cccc(C#Cc2cnn3c(C(F)F)cc(-c4ccc(C(F)(F)F)cc4)nc23)c1 [Example 32, 3-[7-Difluoromethyl-5-(4-trifluoromethyl-phenyl)-pyrazolo[1,5-a]pyrimidin-3-ylethynyl]-N-(2-hydroxy-1,1-dimethyl-ethyl)-benzenesulfonamide] | 161 to 162 |
| NS(=O)(=O)c1ccc(C#Cc2cnn3c(C(F)(F)F)cc(-c4ccc(C(F)(F)F)cc4)nc23)cc1 [Example 36, 4-[7-Trifluoromethyl-5-(4-trifluoromethyl-phenyl)-pyrazolo[1,5-a]pyrimidin-3-ylethynyl]-benzenesulfonamide] | 266 to 267 |

More lines, now with the values ahead:

| melting point [°C] | Compound |
| --- | --- |
| 177 | O=S(=O)(NCc1cccnc1)c1ccc(C#Cc2cnn3c(C(F)(F)F)cc(-c4ccc(C(F)(F)F)cc4)nc23)s1 [Example 273, 5-[7-Trifluoromethyl-5-(4-trifluoromethyl-phenyl)-pyrazolo[1,5-a]pyrimidin-3-ylethynyl]-thiophene-2-sulfonic acid (pyridin-3-ylmethyl)-amide] |
| 259 | Nc1ccc(C#Cc2cnc3c(F)cc(-c4ccc(Cl)cc4)cn23)cn1 [Example 241, 5-[6-(4-Chloro-phenyl)-8-fluoro-imidazo[1,2-a]pyridin-3-ylethynyl]-pyridin-2-ylamine] |
| 277 | NS(=O)(=O)c1cc(C#Cc2cnn3c(C(F)F)cc(-c4cccc(C(F)(F)F)c4)nc23)c(F)cc1F [Example 166, 5-[7-Difluoromethyl-5-(3-trifluoromethyl-phenyl)-pyrazolo[1,5-a]pyrimidin-3-ylethynyl]-2,4-difluoro-benzenesulfonamide] |
| 233 | Nc1cnc(C#Cc2cnn3c(C(F)F)cc(-c4ccc(C(F)(F)F)cc4)nc23)cn1 [Example 287, 5-[7-Difluoromethyl-5-(4-trifluoromethyl-phenyl)-pyrazolo[1,5-a]pyrimidin-3-ylethynyl]-pyrazin-2-ylamine] |
| 201 | Cc1cc(-c2cc(C(F)(F)F)n3ncc(C#Cc4ccc(N)nc4)c3n2)ccc1C(F)(F)F [Example 289, 5-[5-(3-Methyl-4-trifluoromethyl-phenyl)-7-trifluoromethyl-pyrazolo[1,5-a]pyrimidin-3-ylethynyl]-pyridin-2-ylamine] |
| 243 to 246 | Cc1nc(N)ccc1C#Cc1cnn2c(C(F)F)cc(-c3ccc(C(F)(F)F)cc3)nc12 [Example 143, 5-[7-Difluoromethyl-5-(4-trifluoromethyl-phenyl)-pyrazolo[1,5-a]pyrimidin-3-ylethynyl]-6-methyl-pyridin-2-ylamine] |
| 203 to 204 | O=S(=O)(c1cccc(C#Cc2cnn3c(C(F)(F)F)cc(-c4ccc(C(F)(F)F)cc4)nc23)c1)N1CCOCC1 [Example 129, 3-[3-(morpholine-4-sulfonyl)-phenylethynyl]-7-trifluoromethyl-5-(4-trifluoromethyl-phenyl)-pyrazolo[1,5-a]pyrimidine] |
| 202 to 203 | CNS(=O)(=O)c1ccc(C#Cc2cnn3c(C(F)F)cc(-c4ccc(C(F)(F)F)cc4)nc23)cc1 [Example 138, 4-[7-difluoromethyl-5-(4-trifluoromethyl-phenyl)-pyrazolo[1,5-a]pyrimidin-3-ylethynyl]-N-methyl-benzenesulfonamide] |
| 149 | Cc1cc(-c2cc(C(F)F)n3ncc(C#Cc4ccc(S(=O)(=O)NCCN(C)C)s4)c3n2)ccc1Cl [Example 256, 5-[5-(4-Chloro-3-methyl-phenyl)-7-difluoromethyl-pyrazolo[1,5-a]pyrimidin-3-ylethynyl]-thiophene-2-sulfonic acid (2-dimethylamino-ethyl)-amide] |
| 215 to 217 | CCCc1cc(-c2ccc(Cl)cc2)nc2c(C#Cc3ccc(N)nc3)cnn12 [Example 305, 5-[5-(4-Chloro-phenyl)-7-propyl-pyrazolo[1,5-a]pyrimidin-3-ylethynyl]-pyridin-2-ylamine] |
| 213 to 214 | Nc1ccc(C#Cc2cnn3ccc(-c4ccc(C(F)(F)F)cc4)nc23)cn1 [Example 310, 5-[5-(4-Trifluoromethyl-phenyl)-pyrazolo[1,5-a]pyrimidin-3-ylethynyl]-pyridin-2-ylamine] |
| 261 to 263 | NS(=O)(=O)c1ccc(C#Cc2cnc3c(C(F)(F)F)cc(-c4ccc(C(F)(F)F)cc4)nn23)s1 [Example 236, 5-[8-Trifluoromethyl-6-(4-trifluoromethyl-phenyl)-imidazo[1,2-b]pyridazin-3-ylethynyl]-thiophene-2-sulfonic acid amide] |
| 246 | Nc1ccc(C#Cc2cnc3c(C4CC4)cc(-c4ccc(Cl)cc4)cn23)cn1 [Example 233, 5-[6-(4-Chloro-phenyl)-8-cyclopropyl-imidazo[1,2-a]pyridin-3-ylethynyl]-pyridin-2-ylamine] |
| 201 | CC(C)(C)NS(=O)(=O)c1ccc(C#Cc2cnn3c(C(F)F)cc(-c4cccc(C(F)(F)F)c4)nc23)s1 [Example 161, 5-[7-Difluoromethyl-5-(3-trifluoromethyl-phenyl)-pyrazolo[1,5-a]pyrimidin-3-ylethynyl]-thiophene-2-sulfonic acid tert-butylamide] |
| 175 to 176 | O=S(=O)(c1cccc(C#Cc2cnn3c(C(F)F)cc(-c4ccc(C(F)(F)F)cc4)nc23)c1)N1CCOCC1 [Example 144, 7-Difluoromethyl-3-[3-(morpholine-4-sulfonyl)-phenylethynyl]-5-(4-trifluoromethyl-phenyl)-pyrazolo[1,5-a]pyrimidine] |
| 230 to 233 | Cc1cc(-c2ccc(Cl)cc2)nc2c(C#Cc3ccc(S(N)(=O)=O)cc3)cnn12 [Example 292, 4-[5-(4-Chloro-phenyl)-7-methyl-pyrazolo[1,5-a]pyrimidin-3-ylethynyl]-benzenesulfonamide] |
| 241 to 244 | Nc1ccc(C#Cc2cnc3ccc(-c4ccc(C(F)(F)F)cc4)cn23)cn1 [Example 237, 5-[6-(4-Trifluoromethyl-phenyl)-imidazo[1,2-a]pyridin-3-ylethynyl]-pyridin-2-ylamine] |
| 233 to 235 | Nc1ccc(C#Cc2cnn3c(C4CC4)cc(-c4ccc(Cl)cc4)nc23)cn1 [Example 294, 5-[5-(4-Chloro-phenyl)-7-cyclopropyl-pyrazolo[1,5-a]pyrimidin-3-ylethynyl]-pyridin-2-ylamine] |
